Legend:
Cytochrome b [1] = target: Cytochrome b (Homo sapiens, UniProt P00156); test: Cytochrome b Enzyme Assay; settings: pH 7.4; 25 °C
Experimental: (§1) Reaction plates were incubated at room temperature for 10 min before reading absorbance at 550 nm. Absolute IC50 values were calculated in GraphPad Prism 6.0.

Cytochrome b [2] = target: T1, Cytochrome b (Candida albicans, UniProt I2BJW5); test: Cytochrome b Enzyme Assay; settings: pH 7.4; 25 °C
T1 sequence (I2BJW5 whole entry): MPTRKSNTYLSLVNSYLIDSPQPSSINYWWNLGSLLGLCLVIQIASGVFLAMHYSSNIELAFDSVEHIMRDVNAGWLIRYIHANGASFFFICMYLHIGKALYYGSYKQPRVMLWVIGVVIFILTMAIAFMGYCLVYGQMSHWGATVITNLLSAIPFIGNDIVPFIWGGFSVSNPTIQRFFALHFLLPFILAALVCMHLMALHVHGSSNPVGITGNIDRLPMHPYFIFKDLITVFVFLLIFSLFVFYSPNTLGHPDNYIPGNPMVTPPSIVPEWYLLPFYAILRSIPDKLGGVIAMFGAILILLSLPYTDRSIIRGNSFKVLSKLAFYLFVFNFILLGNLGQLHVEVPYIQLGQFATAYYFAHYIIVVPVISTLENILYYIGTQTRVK
Experimental: as §1

Cytochrome b (Homo sapiens, UniProt P00156), sequence (P00156 whole entry): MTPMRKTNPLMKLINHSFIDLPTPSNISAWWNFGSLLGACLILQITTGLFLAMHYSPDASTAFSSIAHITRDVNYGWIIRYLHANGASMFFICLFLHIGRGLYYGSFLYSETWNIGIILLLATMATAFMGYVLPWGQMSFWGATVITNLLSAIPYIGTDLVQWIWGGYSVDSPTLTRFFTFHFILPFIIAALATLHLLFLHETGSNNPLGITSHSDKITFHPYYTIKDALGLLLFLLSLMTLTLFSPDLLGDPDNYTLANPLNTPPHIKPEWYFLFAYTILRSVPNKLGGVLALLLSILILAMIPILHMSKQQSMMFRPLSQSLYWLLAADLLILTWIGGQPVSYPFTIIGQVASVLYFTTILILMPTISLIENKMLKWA

## O=C1C(=O)c2ccccc2C(O)=C1C1CCC(c2ccc(Cl)cc2)CC1 (stereo not given) [3-[4-(4-chlorophenyl)cyclohexyl]-4-hydroxynaphthalene-1,2-dione]
Cytochrome b [1]
  IC50: 1.88 µM
Cytochrome b [2]
  IC50: 3.79 µM

## COC(=O)Cn1nc(-c2ccccc2)c2ccccc21 [Inz-1]
Cytochrome b [1]
  IC50: 45.3 µM
Cytochrome b [2]
  IC50: 8.09 µM

## COC(=O)Cn1nc(-c2cc(C(F)(F)F)ccc2F)c2ccccc21 [Inz-2]
Cytochrome b [1]
  IC50: 4.62 µM
Cytochrome b [2]
  IC50: 0.145 µM

## COC(=O)Cn1nc(-c2ccccc2)c2cccc(C)c21 [Inz-3]
Cytochrome b [1]
  IC50: 21.3 µM
Cytochrome b [2]
  IC50: 1.01 µM

## COC(=O)Cn1nc(-c2cc(C(F)(F)F)ccc2F)c2cccc(C)c21 [Inz-4]
Cytochrome b [1]
  IC50: 1.04 µM
Cytochrome b [2]
  IC50: 0.026 µM

## Cc1cccc2c(-c3cc(C(F)(F)F)ccc3F)nn(Cc3nnn(C)n3)c12 [Inz-5]
Cytochrome b [1]
  IC50: 6.51 µM
Cytochrome b [2]
  IC50: 0.289 µM

## COC(=O)Cn1nc(-c2cccc(OC)c2)c2ccccc21 [Inz-6]
Cytochrome b [1]
  IC50: 28.4 µM
Cytochrome b [2]
  IC50: 1.52 µM

## COC(=O)Cn1nc(-c2cccc(Oc3ccccc3)c2)c2ccccc21 [Inz-7]
Cytochrome b [1]
  IC50: 9.97 µM
Cytochrome b [2]
  IC50: 0.714 µM

## COC(=O)Cn1nc(-c2cccc(OCCc3ccccc3)c2)c2ccccc21 [Inz-8]
Cytochrome b [1]
  IC50: 13.9 µM
Cytochrome b [2]
  IC50: 0.346 µM

## COC(=O)Cn1nc(-c2cccc(OCC3CCCCC3)c2)c2ccccc21 [Inz-9]
Cytochrome b [1]
  IC50: 0.889 µM
Cytochrome b [2]
  IC50: 0.087 µM

## COC(=O)Cn1nc(-c2cccc(C(F)(F)F)c2)c2ccccc21 [Inz-10]
Cytochrome b [1]
  IC50: 8.65 µM
Cytochrome b [2]
  IC50: 1.06 µM

## COC(=O)Cn1nc(-c2cccc(C#N)c2)c2ccccc21 [Inz-11]
Cytochrome b [1]
  IC50: > 64 µM
Cytochrome b [2]
  IC50: 10.1 µM

## COC(=O)Cn1nc(-c2cccc([N+](=O)[O-])c2)c2ccccc21 [Inz-12]
Cytochrome b [1]
  IC50: > 64 µM
Cytochrome b [2]
  IC50: 6.07 µM

## COC(=O)Cn1nc(-c2ccsc2)c2ccccc21 [Inz-13]
Cytochrome b [1]
  IC50: > 64 µM
Cytochrome b [2]
  IC50: 9.23 µM

## COC(=O)Cn1nc(-c2cccnc2)c2ccccc21 [Inz-14]
Cytochrome b [1]
  IC50: > 64 µM
Cytochrome b [2]
  IC50: > 64 µM

## COC(=O)Cn1nc(-c2ccccn2)c2ccccc21 [Inz-15]
Cytochrome b [1]
  IC50: > 64 µM
Cytochrome b [2]
  IC50: 62.4 µM

## COC(=O)Cn1nc(-c2ccccc2OC)c2ccccc21 [Inz-16]
Cytochrome b [1]
  IC50: > 64 µM
Cytochrome b [2]
  IC50: 22.9 µM

## COC(=O)Cn1nc(-c2ccccc2C)c2ccccc21 [Inz-17]
Cytochrome b [1]
  IC50: > 64 µM
Cytochrome b [2]
  IC50: 3.37 µM

## COC(=O)Cn1nc(-c2ccccc2Cl)c2ccccc21 [Inz-18]
Cytochrome b [1]
  IC50: > 64 µM
Cytochrome b [2]
  IC50: 5.41 µM

## COC(=O)Cn1nc(-c2ccccc2F)c2ccccc21 [Inz-19]
Cytochrome b [1]
  IC50: 36 µM
Cytochrome b [2]
  IC50: 2.97 µM

## COC(=O)Cn1nc(-c2ccccc2C#N)c2ccccc21 [Inz-20]
Cytochrome b [1]
  IC50: > 64 µM
Cytochrome b [2]
  IC50: > 64 µM

## COC(=O)Cn1nc(-c2cc(C(F)(F)F)ccc2F)c2cc(C(F)(F)F)ccc21 [Inz-21]
Cytochrome b [1]
  IC50: > 64 µM
Cytochrome b [2]
  IC50: > 64 µM

## COC(=O)Cn1nc(-c2cc(C(F)(F)F)ccc2F)c2c(C(F)(F)F)cccc21 [Inz-22]
Cytochrome b [1]
  IC50: > 64 µM
Cytochrome b [2]
  IC50: 46.8 µM

## COC(=O)Cn1nc(-c2cc(C(F)(F)F)ccc2F)c2c(C)cccc21 [Inz-23]
Cytochrome b [1]
  IC50: > 64 µM
Cytochrome b [2]
  IC50: 10.8 µM

## O=C(O)Cn1nc(-c2ccccc2)c2ccccc21 [Inz-24]
Cytochrome b [1]
  IC50: > 64 µM
Cytochrome b [2]
  IC50: > 64 µM

## CNC(=O)Cn1nc(-c2ccccc2)c2ccccc21 [Inz-25]
Cytochrome b [1]
  IC50: > 64 µM
Cytochrome b [2]
  IC50: > 64 µM

## CON(C)C(=O)Cn1nc(-c2ccccc2)c2ccccc21 [Inz-26]
Cytochrome b [1]
  IC50: > 64 µM
Cytochrome b [2]
  IC50: > 64 µM

## CS(=O)(=O)Cn1nc(-c2ccccc2)c2ccccc21 [Inz-27]
Cytochrome b [1]
  IC50: > 64 µM
Cytochrome b [2]
  IC50: > 64 µM

## FC(F)(F)Cn1nc(-c2ccccc2)c2ccccc21 [Inz-28]
Cytochrome b [1]
  IC50: > 64 µM
Cytochrome b [2]
  IC50: > 64 µM

## c1ccc(-c2nn(Cc3cncs3)c3ccccc23)cc1 [Inz-29]
Cytochrome b [1]
  IC50: > 64 µM
Cytochrome b [2]
  IC50: > 64 µM

## c1ccc(-c2nn(Cc3nccs3)c3ccccc23)cc1 [Inz-30]
Cytochrome b [1]
  IC50: > 64 µM
Cytochrome b [2]
  IC50: > 64 µM

## Cc1cc(Cn2nc(-c3ccccc3)c3ccccc32)on1 [Inz-31]
Cytochrome b [1]
  IC50: > 64 µM
Cytochrome b [2]
  IC50: > 64 µM

## Cc1nnc(Cn2nc(-c3ccccc3)c3ccccc32)o1 [Inz-32]
Cytochrome b [1]
  IC50: > 64 µM
Cytochrome b [2]
  IC50: > 64 µM

## c1ccc(-c2nn(Cc3nn[nH]n3)c3ccccc23)cc1 [Inz-33]
Cytochrome b [1]
  IC50: > 64 µM
Cytochrome b [2]
  IC50: > 64 µM

## Cn1nnc(Cn2nc(-c3ccccc3)c3ccccc32)n1 [Inz-34]
Cytochrome b [1]
  IC50: > 64 µM
Cytochrome b [2]
  IC50: 22.6 µM

## Cn1cc(Cn2nc(-c3ccccc3)c3ccccc32)nn1 [Inz-35]
Cytochrome b [1]
  IC50: > 64 µM
Cytochrome b [2]
  IC50: > 64 µM

## c1ccc(-c2nn(Cc3ncccn3)c3ccccc23)cc1 [Inz-36]
Cytochrome b [1]
  IC50: > 64 µM
Cytochrome b [2]
  IC50: > 64 µM

## c1ccc(-c2nn(Cc3cnccn3)c3ccccc23)cc1 [Inz-37]
Cytochrome b [1]
  IC50: > 64 µM
Cytochrome b [2]
  IC50: 5.42 µM

## Cc1cccc2c(-c3cc(C(F)(F)F)ccc3F)nn(Cc3cnccn3)c12 [Inz-38]
Cytochrome b [1]
  IC50: > 64 µM
Cytochrome b [2]
  IC50: 0.602 µM

## Fc1ccc(C(F)(F)F)cc1-c1nn(Cc2cnccn2)c2c(F)cccc12 [Inz-39]
Cytochrome b [1]
  IC50: 10.8 µM
Cytochrome b [2]
  IC50: 0.141 µM

## CCOc1cccc(-c2nn(CC(=O)OC)c3ccccc23)c1 [Inz-40]
Cytochrome b [1]
  IC50: 28.1 µM
Cytochrome b [2]
  IC50: 0.981 µM

## COC(=O)Cn1nc(-c2cccc(O)c2)c2ccccc21 [Inz-41]
Cytochrome b [1]
  IC50: > 64 µM
Cytochrome b [2]
  IC50: 44.1 µM

## COC(=O)Cn1nc(-c2cccc(OCc3ccccc3)c2)c2ccccc21 [Inz-42]
Cytochrome b [1]
  IC50: > 64 µM
Cytochrome b [2]
  IC50: 7.24 µM

## CCC(=O)Cn1nc(-c2cccc(OCc3ccccc3)c2)c2ccccc21 [Inz-43]
Cytochrome b [1]
  IC50: > 64 µM
Cytochrome b [2]
  IC50: 22.8 µM

## Cn1nc(-c2cccc(OCc3ccccc3)c2)c2ccccc21 [Inz-44]
Cytochrome b [1]
  IC50: > 64 µM
Cytochrome b [2]
  IC50: > 64 µM

## COC(=O)Cn1nc(-c2cccc(CCc3ccccc3)c2)c2ccccc21 [Inz-45]
Cytochrome b [1]
  IC50: 1.17 µM
Cytochrome b [2]
  IC50: 0.0663 µM

## c1ccc(COc2cccc(-c3n[nH]c4ccccc34)c2)cc1 [Inz-46]
Cytochrome b [1]
  IC50: > 64 µM
Cytochrome b [2]
  IC50: > 64 µM

## O=C(O)Cn1nc(-c2cccc(OCc3ccccc3)c2)c2ccccc21 [Inz-47]
Cytochrome b [1]
  IC50: > 64 µM
Cytochrome b [2]
  IC50: > 64 µM

## COC(=O)Cn1ccc(-c2cccc(OCc3ccccc3)c2)n1 [Inz-48]
Cytochrome b [1]
  IC50: > 64 µM
Cytochrome b [2]
  IC50: > 64 µM

## COC(=O)Cn1ncc2ccccc21 [Inz-49]
Cytochrome b [1]
  IC50: > 64 µM
Cytochrome b [2]
  IC50: > 64 µM

## COC(=O)Cn1cc(-c2cccc(OCc3ccccc3)c2)c2ccccc21 [Inz-50]
Cytochrome b [1]
  IC50: > 64 µM
Cytochrome b [2]
  IC50: 13.1 µM

## COC(=O)Cn1nc(-c2ccccc2C(F)(F)F)c2ccccc21 [Inz-51]
Cytochrome b [1]
  IC50: > 64 µM
Cytochrome b [2]
  IC50: 50.5 µM

## COC(=O)Cn1nc(-c2ccccc2O)c2ccccc21 [Inz-52]
Cytochrome b [1]
  IC50: > 64 µM
Cytochrome b [2]
  IC50: 3.57 µM

## COC(=O)Cn1nc(-c2ccc(CCc3ccccc3)cc2)c2ccccc21 [Inz-53]
Cytochrome b [1]
  IC50: > 64 µM
Cytochrome b [2]
  IC50: 43.4 µM

## COC(=O)Cn1nc(-c2cccc(OCC(C)C)c2)c2ccccc21 [Inz-54]
Cytochrome b [1]
  IC50: 9.23 µM
Cytochrome b [2]
  IC50: 0.344 µM

## COC(=O)Cn1nc(-c2ccccc2OCc2ccccc2)c2ccccc21 [Inz-55]
Cytochrome b [1]
  IC50: > 64 µM
Cytochrome b [2]
  IC50: > 64 µM

## COC(=O)Cn1c(C)c(-c2cccc(OCc3ccccc3)c2)c2ccccc21 [Inz-56]
Cytochrome b [1]
  IC50: > 64 µM
Cytochrome b [2]
  IC50: > 64 µM

## COC(=O)Cn1nc(-c2cccc(OCCC(C)C)c2)c2ccccc21 [Inz-57]
Cytochrome b [1]
  IC50: 4.77 µM
Cytochrome b [2]
  IC50: 0.156 µM

## COC(=O)Cn1nc(-c2c(C)cccc2C)c2ccccc21 [Inz-58]
Cytochrome b [1]
  IC50: > 64 µM
Cytochrome b [2]
  IC50: > 64 µM

## COC(=O)Cn1nc(-c2c(F)cccc2F)c2ccccc21 [Inz-59]
Cytochrome b [1]
  IC50: > 64 µM
Cytochrome b [2]
  IC50: 2.36 µM

Source: BindingDB's records for doi:10.1016/j.chembiol.2016.06.016 (Massachusetts Institute of Technology, 2016)
